Source: PubChem BioAssay AID192 (DTP/NCI, 2004)
“And” between values parts separate entries of the source, which are not always exact repeats. Equal values may be shown once. Toxic doses and inconclusive results are not listed.

System: BDF1 mice, B16 melanoma ip, median survival T/C
Experiment: NCI In Vivo Anticancer Drug Screen. Data for tumor model B16 Melanoma (intraperitoneal) in B6D2F1 (BDF1) mice
Details: endpoint: median survival time, higher = longer survival
How it was run: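 Values are ratios of treated (T) to vehicle-control (C) measurements of survival or tumor size in tumor-bearing mice.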

[1] = dose: 2.0 mg/kg/injection, schedule: Q01DX009 (ip), vehicle: saline
[2] = dose: 100.0 mg/kg/injection, schedule: Q01DX009 (ip), vehicle: Klucel (hydroxypropylcellulose) (HPC)
[3] = dose: 200.0 mg/kg/injection, schedule: Q01DX009 (ip), vehicle: Klucel (hydroxypropylcellulose) (HPC)
[4] = dose: 12.5 mg/kg/injection, schedule: Q01DX009 (ip), vehicle: Klucel (hydroxypropylcellulose) (HPC)
[5] = dose: 25.0 mg/kg/injection, schedule: Q01DX009 (ip), vehicle: Klucel (hydroxypropylcellulose) (HPC)
[6] = dose: 50.0 mg/kg/injection, schedule: Q04DX003 (ip), vehicle: saline
[7] = dose: 100.0 mg/kg/injection, schedule: Q04DX003 (ip), vehicle: saline
[8] = dose: 200.0 mg/kg/injection, schedule: Q04DX003 (ip), vehicle: saline
[9] = dose: 50.0 mg/kg/injection, schedule: Q01DX009 (ip), vehicle: saline with Tween-80
[10] = dose: 100.0 mg/kg/injection, schedule: Q01DX009 (ip), vehicle: saline with Tween-80
[11] = dose: 400.0 mg/kg/injection, schedule: Q01DX009 (ip), vehicle: saline with Tween-80
[12] = dose: 400.0 mg/kg/injection, schedule: Q01DX009 (ip), vehicle: Klucel (hydroxypropylcellulose) (HPC)
[13] = dose: 25.0 mg/kg/injection, schedule: Q01DX009 (ip), vehicle: saline with Tween-80
[14] = dose: 12.5 mg/kg/injection, schedule: Q01DX009 (ip), vehicle: saline with Tween-80

CC[C@H]1CN2CCc3cc(OC)c(OC)cc3[C@@H]2C[C@@H]1C[C@H]1NCCc2cc(O)c(OC)cc21
T/C (dose: 2.0 mg/kg/injection, schedule: Q01DX009 (ip), vehicle: saline + alcohol): 118 % of control
T/C [1]: 108 % of control and 120 % of control
T/C (dose: 8.0 mg/kg/injection, schedule: Q01DX009 (ip), vehicle: saline + alcohol): 113 % of control
T/C (dose: 8.0 mg/kg/injection, schedule: Q04DX003 (ip), vehicle: alkali diluted with saline): 117 % of control
T/C (dose: 16.0 mg/kg/injection, schedule: Q04DX003 (ip), vehicle: alkali diluted with saline): 108 % of control
T/C (dose: 32.0 mg/kg/injection, schedule: Q04DX003 (ip), vehicle: alkali diluted with saline): 122 % of control

CCCCCCCCCCCCCCCCc1ccc(CCCC(=O)O)cc1
T/C (dose: 25.0 mg/kg/injection, schedule: Q01DX009 (ip), vehicle: carboxymethylcellulose (CMC)): 101 % of control
T/C (dose: 50.0 mg/kg/injection, schedule: Q01DX009 (ip), vehicle: carboxymethylcellulose (CMC)): 103 % of control
T/C (dose: 100.0 mg/kg/injection, schedule: Q01DX009 (ip), vehicle: carboxymethylcellulose (CMC)): 95 % of control

CCOc1ccc(/C=N\N=C\c2ccc(OCC)cc2)cc1
T/C [2]: 95 % of control
T/C [3]: 90 % of control and 110 % of control

CC1NC(=O)COC1c1ccccc1 (stereo not given)
T/C [4]: 95 % of control
T/C (dose: 12.5 mg/kg/injection, schedule: Q04DX003 (ip), vehicle: saline): 95 % of control
T/C [5]: 95 % of control
T/C (dose: 25.0 mg/kg/injection, schedule: Q04DX003 (ip), vehicle: saline): 92 % of control
T/C (dose: 50.0 mg/kg/injection, schedule: Q01DX009 (ip), vehicle: Klucel (hydroxypropylcellulose) (HPC)): 102 % of control
T/C [6]: 97 % of control
T/C [2]: 97 % of control
T/C [7]: 95 % of control
T/C [8]: 97 % of control

C[C@@H]1C[C@](O)([C@@H](C)Cl)C(=O)O[C@@H]2CCN3CC=C(COC(=O)[C@]1(C)O)[C@H]23
T/C (dose: 5.5 mg/kg/injection, schedule: Q01DX009 (ip), vehicle: saline): 97 % of control
T/C (dose: 11.0 mg/kg/injection, schedule: Q01DX009 (ip), vehicle: saline): 90 % of control
T/C (dose: 22.0 mg/kg/injection, schedule: Q01DX009 (ip), vehicle: saline): 111 % of control

NC(=O)Oc1cccc(OC(N)=O)c1
T/C (dose: 12.5 mg/kg/injection, schedule: Q01DX009 (ip), vehicle: water): 89 % of control
T/C (dose: 25.0 mg/kg/injection, schedule: Q01DX009 (ip), vehicle: water): 94 % of control
T/C (dose: 50.0 mg/kg/injection, schedule: Q01DX009 (ip), vehicle: water): 93 % of control
T/C (dose: 100.0 mg/kg/injection, schedule: Q01DX009 (ip), vehicle: water): 105 % of control
T/C (dose: 200.0 mg/kg/injection, schedule: Q01DX009 (ip), vehicle: water): 93 % of control
T/C (dose: 400.0 mg/kg/injection, schedule: Q01DX009 (ip), vehicle: water): 107 % of control

O=C1NC(c2cccc3ccccc23)Nc2ccccc21 (stereo not given)
T/C (dose: 15.6 mg/kg/injection, schedule: Q01DX009 (ip), vehicle: Klucel (hydroxypropylcellulose) (HPC)): 97 % of control
T/C (dose: 31.2 mg/kg/injection, schedule: Q01DX009 (ip), vehicle: Klucel (hydroxypropylcellulose) (HPC)): 100 % of control
T/C (dose: 62.5 mg/kg/injection, schedule: Q01DX009 (ip), vehicle: Klucel (hydroxypropylcellulose) (HPC)): 104 % of control
T/C (dose: 125.0 mg/kg/injection, schedule: Q01DX009 (ip), vehicle: Klucel (hydroxypropylcellulose) (HPC)): 108 % of control

CCSCCC1(CCC(C)C)C(=O)NC(=Nc2ccccc2)NC1=O (stereo not given)
T/C [9]: 91 % of control
T/C [10]: 89 % of control
T/C [11]: 96 % of control

CNCC(C)CN1CCCCCc2ccccc21 (stereo not given)
T/C (dose: 3.12 mg/kg/injection, schedule: Q01DX009 (ip), vehicle: saline): 102 % of control
T/C (dose: 6.25 mg/kg/injection, schedule: Q01DX009 (ip), vehicle: saline): 100 % of control
T/C (dose: 12.5 mg/kg/injection, schedule: Q01DX009 (ip), vehicle: saline): 95 % of control
T/C (dose: 25.0 mg/kg/injection, schedule: Q01DX009 (ip), vehicle: saline): 100 % of control
T/C (dose: 50.0 mg/kg/injection, schedule: Q01DX009 (ip), vehicle: saline): 113 % of control

CCOC(=O)C(=O)c1c(C)[nH]c2ccccc12
T/C [2]: 113 % of control
T/C [3]: 106 % of control
T/C [12]: 106 % of control

CCOC1CCC2C(CCC(/C=C/c3ccc(O)c4ncccc34)N2C)C1 (stereo not given)
T/C [13]: 111 % of control

CC(=O)Oc1ccccc1O
T/C (dose: 25.0 mg/kg/injection, schedule: Q01DX009 (ip), vehicle: saline + Tween-80 + alcohol): 100 % of control
T/C (dose: 50.0 mg/kg/injection, schedule: Q01DX009 (ip), vehicle: saline + Tween-80 + alcohol): 109 % of control
T/C (dose: 100.0 mg/kg/injection, schedule: Q01DX009 (ip), vehicle: saline + Tween-80 + alcohol): 104 % of control

Cn1nc(-c2ccccc2)nc1[N+](=O)[O-]
T/C [14]: 100 % of control
T/C [13]: 96 % of control
T/C [9]: 106 % of control
T/C [10]: 86 % of control

COc1cccc2c1C(=O)c1c(O)c3c(c(O)c1C2=O)C[C@@](O)(C(=O)CO)C[C@@H]3OC1CC(N2CCOCC2C#N)C(O)C(C)O1 (stereo not given in full)
T/C (dose: 37.5 micrograms/kg/injection, schedule: Q01DX001 (ip), vehicle: water): 161 % of control

Cc1cc(Cl)ccc1NC(=O)c1cccc(C(=O)Nc2ccc(Cl)cc2C)c1
T/C [2]: 100 % of control
T/C [3]: 100 % of control
T/C [12]: 96 % of control

CCCCCCCCC(=O)N1CC(C)OC(C)C1 (stereo not given)
T/C [2]: 103 % of control
T/C [3]: 89 % of control
T/C [12]: 94 % of control

O=C1C=CC(=C(c2ccccc2)c2ccccc2)C=C1
T/C (dose: 6.25 mg/kg/injection, schedule: Q01DX009 (ip), vehicle: Klucel (hydroxypropylcellulose) (HPC)): 96 % of control
T/C [4]: 100 % of control
T/C (dose: 12.5 mg/kg/injection, schedule: Q04DX003 (ip), vehicle: Klucel (hydroxypropylcellulose) (HPC)): 96 % of control
T/C [5]: 96 % of control
T/C (dose: 25.0 mg/kg/injection, schedule: Q04DX003 (ip), vehicle: Klucel (hydroxypropylcellulose) (HPC)): 100 % of control

CN(CC(=O)NC(Cc1c[nH]c2ccccc12)C(=O)O)C(=O)OCc1ccccc1 (stereo not given)
T/C [9]: 113 % of control
T/C [10]: 106 % of control
T/C (dose: 200.0 mg/kg/injection, schedule: Q01DX009 (ip), vehicle: saline with Tween-80): 104 % of control
T/C [11]: 100 % of control

C1CCC(C2OCCO2)CC1
T/C [6]: 90 % of control
T/C (dose: 100.0 mg/kg/injection, schedule: Q01DX009 (ip), vehicle: saline): 113 % of control
T/C [7]: 95 % of control
T/C (dose: 200.0 mg/kg/injection, schedule: Q01DX009 (ip), vehicle: saline): 97 % of control
T/C [8]: 90 % of control

COc1cc(/C=N/NC(=O)N/N=C/c2cc(OC)c(OC)c(OC)c2)cc(OC)c1OC
T/C [2]: 93 % of control
T/C [3]: 90 % of control

COc1cccc2c1C(=O)c1c(O)c3c(c(O)c1C2=O)CC(O)(C(C)=O)CC3O (stereo not given)
T/C (dose: 0.12 mg/kg/injection, schedule: Q01DX009 (ip), vehicle: saline): 91 % of control
T/C (dose: 0.12 mg/kg/injection, schedule: Q04DX003 (ip), vehicle: saline): 94 % of control
T/C (dose: 0.25 mg/kg/injection, schedule: Q04DX003 (ip), vehicle: saline): 100 % of control
T/C (dose: 0.5 mg/kg/injection, schedule: Q01DX009 (ip), vehicle: saline): 86 % of control
T/C (dose: 0.5 mg/kg/injection, schedule: Q04DX003 (ip), vehicle: saline): 105 % of control
T/C (dose: 1.0 mg/kg/injection, schedule: Q01DX009 (ip), vehicle: saline): 94 % of control
T/C (dose: 1.0 mg/kg/injection, schedule: Q04DX003 (ip), vehicle: saline): 97 % of control
T/C [1]: 102 % of control
T/C (dose: 2.0 mg/kg/injection, schedule: Q04DX003 (ip), vehicle: saline): 102 % of control
T/C (dose: 4.0 mg/kg/injection, schedule: Q01DX009 (ip), vehicle: saline): 100 % of control
T/C (dose: 4.0 mg/kg/injection, schedule: Q04DX003 (ip), vehicle: saline): 108 % of control
T/C (dose: 8.0 mg/kg/injection, schedule: Q01DX009 (ip), vehicle: saline): 105 % of control

C/C=C/c1cc2c(c(=O)o1)C(=O)[C@@H](O)[C@H](C)O2
T/C [14]: 95 % of control
T/C [13]: 90 % of control
T/C [9]: 95 % of control
T/C [10]: 110 % of control

C=CCNc1ccc(OC)cc1
T/C [9]: 95 % of control
T/C [10]: 107 % of control

COC(=O)c1cccc(C)c1O
T/C [9]: 100 % of control
T/C [10]: 112 % of control
